Experimental data taken from PMC5867518 (Cell metabolism, 2015).

Key:
Experiment in all cases: PI3-kinase
Format in all cases: biochemical
[1] = target: PI3Kγ (p110γ) (Homo sapiens, UniProt P48736)
[2] = target: PI3Kδ (p110δ/p85α) (Homo sapiens, UniProt O00329)
[3] = target: PI3Kα (p110α/p85α) (Homo sapiens, UniProt P42336)
Sequence of PI3Kα (p110α/p85α) (P42336 whole entry): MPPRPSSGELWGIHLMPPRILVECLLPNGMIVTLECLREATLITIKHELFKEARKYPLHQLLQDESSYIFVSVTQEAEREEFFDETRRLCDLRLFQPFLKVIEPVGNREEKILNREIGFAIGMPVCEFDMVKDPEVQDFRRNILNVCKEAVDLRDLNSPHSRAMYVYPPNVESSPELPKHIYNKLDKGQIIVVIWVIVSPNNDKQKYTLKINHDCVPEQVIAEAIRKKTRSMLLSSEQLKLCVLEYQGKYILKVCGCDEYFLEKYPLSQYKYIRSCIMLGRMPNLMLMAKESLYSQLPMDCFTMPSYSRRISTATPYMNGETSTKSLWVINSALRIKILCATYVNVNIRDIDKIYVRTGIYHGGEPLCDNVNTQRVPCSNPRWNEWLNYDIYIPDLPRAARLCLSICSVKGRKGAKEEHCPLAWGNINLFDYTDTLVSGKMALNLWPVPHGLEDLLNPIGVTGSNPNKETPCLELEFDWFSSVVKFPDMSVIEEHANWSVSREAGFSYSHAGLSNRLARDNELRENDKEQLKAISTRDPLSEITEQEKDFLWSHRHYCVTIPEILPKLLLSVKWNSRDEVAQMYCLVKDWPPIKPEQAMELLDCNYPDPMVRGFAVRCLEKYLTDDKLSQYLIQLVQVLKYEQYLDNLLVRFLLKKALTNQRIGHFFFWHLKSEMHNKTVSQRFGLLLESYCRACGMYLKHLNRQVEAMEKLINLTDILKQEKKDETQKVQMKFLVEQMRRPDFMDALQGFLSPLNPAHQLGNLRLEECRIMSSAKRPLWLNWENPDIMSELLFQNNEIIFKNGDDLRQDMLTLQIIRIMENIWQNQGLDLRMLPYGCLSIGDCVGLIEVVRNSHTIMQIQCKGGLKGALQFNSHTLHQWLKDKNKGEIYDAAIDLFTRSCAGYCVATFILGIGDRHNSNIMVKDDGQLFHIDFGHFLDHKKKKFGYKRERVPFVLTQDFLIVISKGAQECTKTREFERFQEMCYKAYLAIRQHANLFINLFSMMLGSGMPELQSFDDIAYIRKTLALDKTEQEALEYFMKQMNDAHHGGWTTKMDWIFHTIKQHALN
Sequence of PI3Kα (p110α/p85α) (P27986 2-724 partner): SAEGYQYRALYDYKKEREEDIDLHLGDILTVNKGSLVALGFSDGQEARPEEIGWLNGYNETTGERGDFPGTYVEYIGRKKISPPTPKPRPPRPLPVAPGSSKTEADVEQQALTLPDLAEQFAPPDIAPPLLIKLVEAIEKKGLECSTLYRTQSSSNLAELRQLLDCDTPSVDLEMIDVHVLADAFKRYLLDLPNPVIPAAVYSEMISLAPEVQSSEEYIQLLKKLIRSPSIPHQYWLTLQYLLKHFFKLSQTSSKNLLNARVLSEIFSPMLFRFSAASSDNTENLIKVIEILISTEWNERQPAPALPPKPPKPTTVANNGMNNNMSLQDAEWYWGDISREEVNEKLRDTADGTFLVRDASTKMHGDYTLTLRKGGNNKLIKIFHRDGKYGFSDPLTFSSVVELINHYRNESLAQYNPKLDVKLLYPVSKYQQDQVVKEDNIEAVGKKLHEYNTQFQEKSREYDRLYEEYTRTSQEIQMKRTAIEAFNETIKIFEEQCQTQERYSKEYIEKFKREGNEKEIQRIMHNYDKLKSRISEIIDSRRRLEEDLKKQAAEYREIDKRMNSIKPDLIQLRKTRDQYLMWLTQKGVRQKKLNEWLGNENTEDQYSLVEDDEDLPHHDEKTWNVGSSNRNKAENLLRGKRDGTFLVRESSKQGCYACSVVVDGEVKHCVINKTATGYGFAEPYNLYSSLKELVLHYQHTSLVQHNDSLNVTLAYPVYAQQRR

Sequence of PI3Kδ (p110δ/p85α) (O00329 whole entry): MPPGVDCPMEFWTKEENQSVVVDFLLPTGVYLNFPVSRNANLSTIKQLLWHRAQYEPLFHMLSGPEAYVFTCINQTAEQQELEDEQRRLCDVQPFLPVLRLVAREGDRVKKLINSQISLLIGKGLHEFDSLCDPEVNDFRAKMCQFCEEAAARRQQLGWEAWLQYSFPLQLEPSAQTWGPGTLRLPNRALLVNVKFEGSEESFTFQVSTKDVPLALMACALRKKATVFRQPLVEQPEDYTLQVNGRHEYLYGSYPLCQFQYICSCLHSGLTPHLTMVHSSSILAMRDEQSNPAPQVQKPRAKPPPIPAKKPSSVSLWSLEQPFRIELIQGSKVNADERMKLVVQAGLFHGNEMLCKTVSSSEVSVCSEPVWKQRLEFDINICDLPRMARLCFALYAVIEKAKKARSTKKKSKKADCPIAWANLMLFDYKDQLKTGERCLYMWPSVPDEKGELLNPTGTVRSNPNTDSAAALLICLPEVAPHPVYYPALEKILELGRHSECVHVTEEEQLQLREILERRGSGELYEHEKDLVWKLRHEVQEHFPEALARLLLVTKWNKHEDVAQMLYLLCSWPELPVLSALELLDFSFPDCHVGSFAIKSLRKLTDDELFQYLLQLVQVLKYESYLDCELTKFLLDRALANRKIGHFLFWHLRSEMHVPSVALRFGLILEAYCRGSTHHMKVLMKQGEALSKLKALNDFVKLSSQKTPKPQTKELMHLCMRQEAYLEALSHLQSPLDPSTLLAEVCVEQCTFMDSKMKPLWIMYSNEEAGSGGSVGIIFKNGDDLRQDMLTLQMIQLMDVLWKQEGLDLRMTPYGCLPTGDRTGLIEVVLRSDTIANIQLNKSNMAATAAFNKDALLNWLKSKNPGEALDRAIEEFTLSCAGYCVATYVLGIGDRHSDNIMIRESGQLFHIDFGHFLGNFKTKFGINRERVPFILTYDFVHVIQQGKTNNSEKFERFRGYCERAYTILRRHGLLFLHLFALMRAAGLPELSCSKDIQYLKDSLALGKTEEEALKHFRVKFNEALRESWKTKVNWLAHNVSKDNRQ
Sequence of PI3Kδ (p110δ/p85α) (P27986 2-724 partner): as the sequence (P27986 2-724 partner) above
Sequence of PI3Kγ (p110γ) (P48736 whole entry): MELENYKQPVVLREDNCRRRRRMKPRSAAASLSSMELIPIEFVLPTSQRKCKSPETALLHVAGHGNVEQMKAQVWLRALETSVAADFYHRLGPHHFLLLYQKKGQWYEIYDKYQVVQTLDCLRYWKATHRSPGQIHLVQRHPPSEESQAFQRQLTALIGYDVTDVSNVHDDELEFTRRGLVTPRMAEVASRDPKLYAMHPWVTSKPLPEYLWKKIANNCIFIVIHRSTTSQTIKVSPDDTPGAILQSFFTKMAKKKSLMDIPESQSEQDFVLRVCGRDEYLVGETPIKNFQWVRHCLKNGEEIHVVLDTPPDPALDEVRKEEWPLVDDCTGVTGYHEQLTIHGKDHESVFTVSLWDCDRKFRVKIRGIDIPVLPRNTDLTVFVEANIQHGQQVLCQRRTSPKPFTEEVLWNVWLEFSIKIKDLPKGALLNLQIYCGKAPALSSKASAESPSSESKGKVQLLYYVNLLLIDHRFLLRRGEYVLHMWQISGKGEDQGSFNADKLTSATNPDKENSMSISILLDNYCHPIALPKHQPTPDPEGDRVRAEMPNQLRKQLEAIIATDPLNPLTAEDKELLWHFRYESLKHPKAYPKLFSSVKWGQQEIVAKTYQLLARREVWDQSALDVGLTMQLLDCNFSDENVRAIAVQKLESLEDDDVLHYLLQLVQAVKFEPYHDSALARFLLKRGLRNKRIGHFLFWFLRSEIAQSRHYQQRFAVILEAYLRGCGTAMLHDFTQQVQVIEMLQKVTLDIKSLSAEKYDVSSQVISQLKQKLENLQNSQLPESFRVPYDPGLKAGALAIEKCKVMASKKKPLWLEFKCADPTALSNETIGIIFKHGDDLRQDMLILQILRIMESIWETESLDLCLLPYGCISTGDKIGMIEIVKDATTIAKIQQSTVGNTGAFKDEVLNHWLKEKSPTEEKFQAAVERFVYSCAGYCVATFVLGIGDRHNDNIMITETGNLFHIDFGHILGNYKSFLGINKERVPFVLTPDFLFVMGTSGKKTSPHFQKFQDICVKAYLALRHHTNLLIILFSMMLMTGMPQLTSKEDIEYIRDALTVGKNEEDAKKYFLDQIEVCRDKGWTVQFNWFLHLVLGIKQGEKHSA

IC50 [1]: 44 nM
IC50 [2]: 2.5 nM
IC50 [3]: 2.4 nM
Substance: CNIO-PI3Ki
